In patent US9193736B2, “PDE 10a inhibitors for the treatment of type II diabetes” (Janssen Pharmaceutica, NV, priority 2013, dated 2015):
Structures can show the parent of a compound that is named as a salt.

Tests used:
[1] = target: Human recombinant PDE10A2 (Homo sapiens (Human), UniProt Q9Y233); assay: In vitro hPDE10a: human recombinant PDE10A2 scintillation proximity assay, IC50; assay type: biochemical; details: human recombinant PDE10A2, SPA, 60 nM cAMP; read-out: hPDE10a2 IC50
Procedure: Cells were harvested and the phosphodiesterase protein was purified by metal chelate chromatography on Ni-sepharose 6FF. The affinity of the compounds of Formula (I) for phophodiesterases (PDE) was measured by a scintillation proximity assay (SPA). PDE Yttrium Silicate SPA beads allow PDE activity to be measured by direct binding of the primary phosphate groups of non-cyclic AMP or GMP to the beads via a complex iron chelation mechanism. The amount of bound tritiated product ([^3H]-AMP) is measured by liquid scintillation counting. The compounds were dissolved and diluted in 100% DMSO in polystyrene plates to a concentration of 100-fold the final concentration in the assay. […] After incubation, the reaction was stopped with 20 μL of stop solution, consisting of PDE SPA beads (17.8 mg beads/mL in 18 mM zinc sulphate). […] To measure the low control, no enzyme was added to the reaction mixture. Data were calculated as the percentage of inhibition of total activity measured in the absence of test compound (% control). […] For compounds tested more than once, the data points were aggregated.

[2] = target: Rat recombinant PDE10a (rPDE10a) (Rattus norvegicus (Rat), UniProt Q9QYJ6); assay: In vitro assay PDE10a: rat recombinant PDE10a SPA with 3H-cAMP substrate, IC50; assay type: biochemical; details: 60 nM cAMP, read-out: rPDE10a2 IC50
Chain of Rat recombinant PDE10a (rPDE10a) (Q9QYJ6 whole entry): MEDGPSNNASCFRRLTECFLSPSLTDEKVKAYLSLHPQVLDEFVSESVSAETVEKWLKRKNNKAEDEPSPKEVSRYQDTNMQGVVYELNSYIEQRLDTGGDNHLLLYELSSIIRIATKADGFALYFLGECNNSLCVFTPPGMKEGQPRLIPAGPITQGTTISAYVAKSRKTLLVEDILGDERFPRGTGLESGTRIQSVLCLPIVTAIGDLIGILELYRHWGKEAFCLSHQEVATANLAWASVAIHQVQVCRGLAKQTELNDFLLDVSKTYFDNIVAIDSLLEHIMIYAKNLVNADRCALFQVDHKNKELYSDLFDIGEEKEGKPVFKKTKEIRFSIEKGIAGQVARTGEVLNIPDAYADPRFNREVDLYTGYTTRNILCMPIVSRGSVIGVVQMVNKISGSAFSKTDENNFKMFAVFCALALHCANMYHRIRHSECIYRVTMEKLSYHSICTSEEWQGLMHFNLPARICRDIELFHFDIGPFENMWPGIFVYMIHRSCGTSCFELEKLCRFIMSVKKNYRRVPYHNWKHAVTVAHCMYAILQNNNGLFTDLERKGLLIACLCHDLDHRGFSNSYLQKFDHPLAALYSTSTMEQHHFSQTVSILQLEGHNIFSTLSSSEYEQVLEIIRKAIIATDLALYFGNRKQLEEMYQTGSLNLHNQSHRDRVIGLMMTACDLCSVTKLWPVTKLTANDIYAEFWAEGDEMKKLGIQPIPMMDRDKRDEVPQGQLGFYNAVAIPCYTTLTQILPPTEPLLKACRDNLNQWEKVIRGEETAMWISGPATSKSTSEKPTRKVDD
Procedure: In Vitro Assay PDE10a Rat recombinant PDE10a (rPDE10a) was expressed in Sf9 cells using a recombinant rPDE10a baculovirus construct. Cells were harvested after 48 h of infection and the rPDE10a protein was purified by metal chelate chromatography on Ni-sepharose 6FF. Tested compounds were dissolved and diluted in 100% DMSO to a concentration 100 fold of the final concentration in the assay. […] The reaction was incubated for 60 min at rt. After incubation, the reaction was stopped with 20 μL of 17.8 mg/mL PDE SPA beads. […] For blank values the enzyme was omitted from the reaction and replaced by incubation buffer.

Chain of Human recombinant PDE10A2 (Q9Y233 267-1055): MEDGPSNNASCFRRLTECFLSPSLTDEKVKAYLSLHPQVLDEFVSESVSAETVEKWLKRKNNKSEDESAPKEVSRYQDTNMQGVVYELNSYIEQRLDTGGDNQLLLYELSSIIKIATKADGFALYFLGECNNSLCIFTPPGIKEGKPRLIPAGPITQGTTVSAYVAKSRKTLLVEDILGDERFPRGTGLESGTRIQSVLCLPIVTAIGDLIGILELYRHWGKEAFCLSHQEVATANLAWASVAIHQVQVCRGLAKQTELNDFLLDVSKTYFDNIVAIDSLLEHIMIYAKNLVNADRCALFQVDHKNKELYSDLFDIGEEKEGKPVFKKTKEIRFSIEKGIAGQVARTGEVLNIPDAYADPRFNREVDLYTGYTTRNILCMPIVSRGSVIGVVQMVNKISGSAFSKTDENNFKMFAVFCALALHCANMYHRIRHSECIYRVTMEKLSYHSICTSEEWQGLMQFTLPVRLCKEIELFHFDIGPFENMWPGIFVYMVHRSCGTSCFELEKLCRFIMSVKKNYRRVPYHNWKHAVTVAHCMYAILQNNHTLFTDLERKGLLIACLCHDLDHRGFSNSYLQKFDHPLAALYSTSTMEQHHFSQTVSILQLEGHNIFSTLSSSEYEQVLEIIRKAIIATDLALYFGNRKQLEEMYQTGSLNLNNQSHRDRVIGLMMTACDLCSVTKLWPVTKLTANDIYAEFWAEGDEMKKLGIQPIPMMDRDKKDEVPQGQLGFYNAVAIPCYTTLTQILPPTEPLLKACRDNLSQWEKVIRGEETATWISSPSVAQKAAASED

Molecule `CS(=O)(=O)NC(=O)Nc1ccc(-c2c(CCc3ccc4ccccc4n3)nc3c(N4CCOCC4)ccnn23)cc1` [Cpd 51, N-({4-[8-Morpholin-4-yl-2-(2-quinolin-2-ylethyl)imidazo[1,2-b]pyridazin-3-yl]phenyl}carbamoyl)methanesulfonamide] has an IC50 [1] of 6 nM and an IC50 [2] of 4 nM.
`O=C(O)C1CCC(Nc2c(/C=C/c3ccc4ccccc4n3)nc3c(N4CCOCC4)ccnn23)CC1` (stereo not shown) [Cpd 152, (E)-4-((8-Morpholino-2-(2-(quinolin-2-yl)vinyl)imidazo[1,2-b]pyridazin-3-yl)amino)cyclohexanecarboxylic acid] showed an IC50 [1] of 7 nM and an IC50 [2] of 15 nM.
`O=C(O)c1ccc(-c2c(C#Cc3ccc4ccccc4n3)nc3c(N4CCOCC4)ccnn23)s1` [Cpd 85, 5-(8-Morpholino-2-(quinolin-2-ylethynyl)imidazo[1,2-b]pyridazin-3-yl)thiophene-2-carboxylic acid] was tested, and the IC50 [1] was under 1 nM and the IC50 [2] was under 1 nM.
In the case of `O=C(O)c1cc(/C=C/c2cn3nc(Cl)cc(N4CCOCC4)c3n2)nc2ccccc12` [Cpd 126, 2-[(E)-2-(6-Chloro-8-morpholin-4-ylimidazo[1,2-b]pyridazin-2-yl)ethenyl]quinoline-4-carboxylic acid], the IC50 [1] is reported as 2 nM and the IC50 [2] is reported as 1 nM.
Molecule `O=C(O)c1ccc(-c2c(CCc3ccc4ccccc4n3)nc3c(N4CCOCC4)ccnn23)s1` [compound 61, 5-(8-Morpholino-2-(2-(quinolin-2-yl)ethyl)imidazo[1,2-b]pyridazin-3-yl)thiophene-2-carboxylic acid] has an IC50 [1] of under 1 nM and an IC50 [2] of under 1 nM.
`O=c1[nH]c(-c2ccc(-c3c(/C=C/c4ccc5ccccc5n4)nc4c(N5CCOCC5)ccnn34)cn2)no1` [Cpd 34, (E)-3-(5-(8-Morpholino-2-(2-(quinolin-2-yl)vinyl)imidazo[1,2-b]pyridazin-3-yl)pyridin-2-yl)-1,2,4-oxadiazol-5(4H)-one] showed an IC50 [1] of 3 nM and an IC50 [2] of 2 nM.
`CS(=O)(=O)Nc1ccc(-c2c(/C=C/c3ccc4ccccc4n3)nc3c(N4CCOCC4)ccnn23)cc1` [compound 47, (E)-N-(4-(8-Morpholino-2-(2-(quinolin-2-yl)vinyl)imidazo[1,2-b]pyridazin-3-yl)phenyl)methanesulfonamide] was tested, and the IC50 [1] was 14 nM and the IC50 [2] was 11 nM.
`O=C(O)c1cc2ccccc2nc1/C=C/c1cn2nc(Cl)cc(N3CCOCC3)c2n1` [Cpd 143, 2-[(E)-2-(6-Chloro-8-morpholin-4-ylimidazo[1,2-b]pyridazin-2-yl)ethenyl]quinoline-3-carboxylic acid] was tested, and the IC50 [1] was 1 nM and the IC50 [2] was under 1 nM.
In the case of `COc1cc2ccccc2nc1/C=C/c1nc2c(N3CCOCC3)ccnn2c1-c1ccc(C(=O)O)cc1` [Cpd 119, (E)-4-(2-(2-(3-Methoxyquinolin-2-yl)vinyl)-8-morpholinoimidazo[1,2-b]pyridazin-3-yl)benzoic acid], the IC50 [1] is reported as 6 nM and the IC50 [2] is reported as 6 nM.
Molecule `O=C(NO)c1cccc2nc(/C=C/c3cn4nccc(N5CCOCC5)c4n3)ccc12` [Cpd 118, N-Hydroxy-2-[(E)-2-(8-morpholin-4-ylimidazo[1,2-b]pyridazin-2-yl)ethenyl]quinoline-5-carboxamide] has an IC50 [1] of under 1 nM and an IC50 [2] of 1 nM.
`O=C(O)c1cccc(-c2c(C#Cc3ccc4ccccc4n3)nc3c(N4CCOCC4)ccnn23)c1` [Cpd 88, 3-(8-Morpholino-2-(quinolin-2-ylethynyl)imidazo[1,2-b]pyridazin-3-yl)benzoic acid trifluoroacetic acid salt] was tested, and the IC50 [1] was under 1 nM and the IC50 [2] was under 1 nM.
With `Cc1ccc(-c2c(COc3ccc4ccccc4n3)nc3c(N4CCOCC4)ccnn23)cn1` [Cpd 1, 4-(3-(6-methylpyridin-3-yl)-2-((quinolin-2-yloxy)methyl)imidazo[1,2-b]pyridazin-8-yl)morpholine methane sulfonic acid] the IC50 [1] was 115 nM and the IC50 [2] was 46 nM.
`CC(C)[C@H](NC(=O)c1ccc(-c2c(C#Cc3ccc4ccccc4n3)nc3c(N4CCOCC4)ccnn23)cc1)C(=O)O` [Cpd 101, (S)-3-Methyl-2-(4-(8-morpholino-2-(quinolin-2-ylethynyl)imidazo[1,2-b]pyridazin-3-yl)benzamido)butanoic acid trifluoroacetic acid salt] was tested, and the IC50 [1] was 4 nM and the IC50 [2] was 5 nM.
For `O=C(O)c1ccc(-c2c(C3CN(c4ccc5ccccc5n4)C3)nc3c(N4CCOCC4)ccnn23)cc1` [Cpd 157, 4-(8-Morpholino-2-(1-(quinolin-2-yl)azetidin-3-yl)imidazo[1,2-b]pyridazin-3-yl)benzoic acid], the IC50 [1] was 2 nM and the IC50 [2] was 2 nM.
`CC(=O)NS(=O)(=O)c1ccc(-c2c(/C=C/c3ccc4ccccc4n3)nc3c(N4CCOCC4)ccnn23)cc1` [compound 36, (E)-N-((4-(8-Morpholino-2-(2-(quinolin-2-yl)vinyl)imidazo[1,2-b]pyridazin-3-yl)phenyl)sulfonyl)acetamide] was tested, and the IC50 [1] was 2 nM and the IC50 [2] was 2 nM.
`CS(=O)(=O)NC(=O)c1cccc2nc(/C=C/c3nc4c(N5CCOCC5)ccnn4c3-c3ccccc3)ccc12` [Cpd 122, (E)-N-(Methylsulfonyl)-2-(2-(8-morpholino-3-phenylimidazo[1,2-b]pyridazin-2-yl)vinyl)quinoline-5-carboxamide] showed an IC50 [1] of 4 nM and an IC50 [2] of 7 nM.
With `O=c1[nH]nnn1-c1ccc(-c2c(CCc3ccc4ccccc4n3)nc3c(N4CCOCC4)ccnn23)cc1` [Cpd 62, 1-(4-(8-Morpholino-2-(2-(quinolin-2-yl)ethyl)imidazo[1,2-b]pyridazin-3-yl)phenyl)-1H-tetrazol-5(4H)-one] the IC50 [1] was 4 nM and the IC50 [2] was 9 nM.
Molecule `O=C(O)c1ccc(Nc2c(/C=C/c3ccc4ccccc4n3)nc3c(N4CCOCC4)ccnn23)c(F)c1` [Cpd 139, (E)-3-Fluoro-4-((8-morpholino-2-(2-(quinolin-2-yl)vinyl)imidazo[1,2-b]pyridazin-3-yl)amino)benzoic acid] has an IC50 [1] of 1 nM and an IC50 [2] of 2 nM.
`O=C(O)c1ccc(-c2c(CCc3ccc4ccccc4n3)nc3c(N4CCOCC4)ccnn23)cc1O` [compound 64, 2-Hydroxy-4-(8-morpholino-2-(2-(quinolin-2-yl)ethyl)imidazo[1,2-b]pyridazin-3-yl)benzoic acid] showed an IC50 [1] of 1 nM and an IC50 [2] of 2 nM.
`c1ccc2nc(NCc3nc4c(N5CCOCC5)ccnn4c3-c3ccc(N4CCNCC4)nc3)ccc2c1` [Cpd 4, N-((8-Morpholino-3-(6-(piperazin-1-yl)pyridin-3-yl)imidazo[1,2-b]pyridazin-2-yl)methyl)quinolin-2-amine trifluoroacetic acid salt] gave an IC50 [1] of 155 nM and an IC50 [2] of 200 nM.
`CS(=O)(=O)NC(=O)c1cccc2nc(/C=C/c3nc4c(N5CCOCC5)ccnn4c3-c3ccccn3)ccc12` [Cpd 145, (E)-N-(Methylsulfonyl)-2-(2-(8-morpholino-3-(pyridin-2-yl)imidazo[1,2-b]pyridazin-2-yl)vinyl)quinoline-5-carboxamide] was tested, and the IC50 [1] was 4 nM and the IC50 [2] was 2 nM.
`O=C(O)c1ccc(-c2c(C#Cc3nc4ccccc4s3)nc3c(N4CCOCC4)ccnn23)cc1` [Cpd 87, 4-(2-(Benzo[d]thiazol-2-ylethynyl)-8-morpholinoimidazo[1,2-b]pyridazin-3-yl)benzoic acid] was tested, and the IC50 [1] was 1 nM and the IC50 [2] was 1 nM.
In the case of `COc1cc(-c2c(CCc3ccc4ccccc4n3)nc3c(N4CCOCC4)ccnn23)ccc1C(=O)O` [compound 69, 2-Methoxy-4-(8-morpholino-2-(2-(quinolin-2-yl)ethyl)imidazo[1,2-b]pyridazin-3-yl)benzoic acid], the IC50 [1] is reported as 6 nM and the IC50 [2] is reported as 4 nM.
